Experimental data: US9125406B2, “Methods and compositions for control of cabbage looper, trichoplusia ni” (Simon Fraser University, priority 2008, dated 2015)
Where two headings read alike, the source gives them in different places.

What was measured:
T. ni moths [1] = experiment: Oviposition choice (deterrence) bioassay on cabbage leaves; assay type: in vivo, Trichoplusia ni; conditions: for pest or weed control at 0.25 %: Trichoplusia, 48 h, read-out: OD (%) Mean ± SE N = 35-40
[2] = test system: third instar T. ni larvae; experiment: Leaf disk choice feeding deterrence bioassay; assay type: in vivo, Trichoplusia ni; conditions: for pest or weed control at 50 µg/cm2, 50 µg/cm2 / pest or weed control at 50 µg/cm2: Trichoplusia, foliar; for pest or weed control at 50 µg/cm2: read-out: % deterrence; for DC50: feeding deterrence DC50, unit not given in Table 12
Excerpt: Cabbage plants (Brassica oleraceae var. Stonehead) used in the bioassays were routinely grown in plastic pots with a mixture of sandy loam soil and peat moss (4:1) in a greenhouse at the University of British Columbia, Vancouver, BC, Canada. Leaves were collected from cabbage plants that were 5-6 weeks old.
T. ni larvae and moths were obtained from a long established colony (>50 generations) maintained on an artificial diet, Velvetbean Caterpillar Diet No. F9796 [Bio-Sery Inc. (Frenchtown, NIL)] in the insectary of the University of British Columbia (UBC).
(§1) Initial screening for feeding deterrent effects was conducted at 50 μg/cm^2 in feeding deterrent bioassays.
Larvae were given the choice of feeding on two leaf disks, one treated with 10 μL of a solution of the test substance painted on each side and the other treated with a carrier solvent alone. The number of larvae was 25 per treatment.
Feeding deterrence data (percent) for initial screening concentration were analyzed by analysis of variance (ANOVA) after arcsin transformation using statistics software (Statistix 7. Analytical Software, Statistix 7 for Windows 95, 98, NT, 2000. Analytical Software, Tallahassee).

T. ni moths [3] = experiment: Oviposition choice (deterrence) bioassay on cabbage leaves; assay type: in vivo, Trichoplusia ni; conditions: for % deterrence / Index = deterrence/mortality: Table 11; for % deterrence: BL mark not explained; for Index = deterrence/mortality: oviposition deterrence divided by mortality
Description: as §1
T. ni larvae were reared on normal diet from neonates (<24 h old) until pupation. Pupae were sexed and put in separate plastic containers until emergence. After eclosion, pairs of moths (one male and one female) were introduced into each cage with a control and a treated cabbage leaf. Pairs of moths (n=25) were used per treatment. Each leaf (approximately 100-110 cm^2) was sprayed with 0.5 mL of MeOH or a methanolic solution of the test chemical on each side. Eggs were counted on each cabbage leaf after 48 h.

[4] = test system: third instar T. ni larvae; experiment: whole plant or invertebrate; conditions: for mortality at 0.25 %: Trichoplusia, topical, 24 h
Description: as §1
Mortality was determined 24 h after spraying larvae directly with test solutions. Third instar T. ni larvae were sprayed in 90 mm×15 mm Petri dishes (Falcon) lined with Fisher Scientific filter paper (90 mm diameter). Small plastic hand spraying bottles (50 mL capacity) were used. Larvae were then transferred to Petri dishes (90 mm×15 mm) with a small piece of artificial diet. Each Petri dish contained 10 larvae. Three replicates, each consisting of 10 larvae, were used per treatment.

[5] = Table 8, 50 μg/cm^2, read-out: F.D (%) Mean ± SE N = 25
[6] = feeding deterrence (FD), Table 12, non-toxic feeding deterrents
[7] = oviposition deterrence at 0.25%
[8] = read-out: Mortality (%) N = 3 × 10, Table 8, at 0.25%
[9] = contact toxicity to larvae, negative or zero values replaced by 0.1 for the index (footnote b)
[10] = read-out: Mortality (%) N = 3 × 10, Table 10, at 0.25%

`CCCCOc1ccccc1OCCC` [3a{3, 4}, 1-propoxy-2-butoxybenzene] gave a pest or weed control at 0.25 % (T. ni moths [1]; Table 8, at 0.25%) of 37 ± 14%, a pest or weed control at 50 µg/cm2, 50 µg/cm2 [2, 5] of 98 ± 2% and a pest or weed control at 50 µg/cm2 [2, 6] of 98%. For the same molecule, the DC50 [2] was 21 μg/cm^2, the “% deterrence” value (T. ni moths [3]; [7]) was 37 BL % and the “Index = deterrence/mortality” value (T. ni moths [3]) was 1.9. The mortality at 0.25 % [4, 8] was 19% and the “% mortality” value [4, 9] was 19%.

With `C=CCOc1ccccc1OCCCC` [3a{4, 6}, 1-allyloxy-2-butoxybenzene] the pest or weed control at 0.25 % (T. ni moths [1]; Table 8, at 0.25%) was 35 ± 17%, the pest or weed control at 50 µg/cm2, 50 µg/cm2 [2, 5] was 92 ± 6% and the pest or weed control at 50 µg/cm2 [2, 6] was 92%. The DC50 [2] was 17 μg/cm^2, the “% deterrence” value (T. ni moths [3]; [7]) was 35 BL % and the “Index = deterrence/mortality” value (T. ni moths [3]) was 1.8. The mortality at 0.25 % [4, 8] was 19% and the “% mortality” value [4, 9] was 19%.

For `C=CCOc1cccc(OC)c1` [3b{1, 6}, 1-allyloxy-3-methoxybenzene], the pest or weed control at 0.25 % (T. ni moths [1]; Table 8, at 0.25%) was 9 ± 14%, the pest or weed control at 50 µg/cm2, 50 µg/cm2 [2, 5] was 66 ± 12% and the mortality at 0.25 % [4, 8] was 33%.

`CCCOc1cccc(OCCC(C)C)c1` [3b{3, 5}, 3-propoxy-1-isopentoxybenzene] gave a pest or weed control at 0.25 % (T. ni moths [1]; Table 8, at 0.25%) of 9 ± 17%, a pest or weed control at 50 µg/cm2, 50 µg/cm2 [2, 5] of 97 ± 3% and a pest or weed control at 50 µg/cm2 [2, 6] of 97%. The DC50 [2] was 17 μg/cm^2, the mortality at 0.25 % [4, 8] was 10% and the “% mortality” value [4, 9] was 10%.

Work on `C=CCOc1cccc(OCC=C)c1` [3b{6, 6}, 1,3-Diallyloxy benzene] yielded a pest or weed control at 0.25 % (T. ni moths [1]; Table 8, at 0.25%) of 25 to 30%, a pest or weed control at 50 µg/cm2, 50 µg/cm2 [2, 5] of 97 ± 3% and a pest or weed control at 50 µg/cm2 [2, 6] of 97%. The DC50 [2] was 20 μg/cm^2, the mortality at 0.25 % [4, 8] was 13% and the “% mortality” value [4, 9] was 13%.

`CCCOc1ccc(OCC)cc1` [3c{2, 3}, 4-ethoxy-1-propoxybenzene] was tested, and the pest or weed control at 0.25 % (T. ni moths [1]; Table 8, at 0.25%) was 10 ± 13%, the pest or weed control at 50 µg/cm2, 50 µg/cm2 [2, 5] was 100% and the pest or weed control at 50 µg/cm2 [2, 6] was 100%. The DC50 [2] was 33 μg/cm^2, the mortality at 0.25 % [4, 8] was 17% and the “% mortality” value [4, 9] was 17%.

In the case of `C=CCOc1ccc(OCC)cc1` [3c{2, 6}, 1-allyloxy-4-ethoxybenzene], the pest or weed control at 0.25 % (T. ni moths [1]; Table 8, at 0.25%) is reported as < 30%, the pest or weed control at 50 µg/cm2, 50 µg/cm2 [2, 5] is reported as 73 ± 12% and the mortality at 0.25 % [4, 8] is reported as 6.7%.

With `C=CCOc1ccc(OCCC(C)C)cc1` [3c{5, 6}, 1-allyloxy-4-isopentoxybenzene] the pest or weed control at 0.25 % (T. ni moths [1]; Table 8, at 0.25%) was -25 ± 12%, the pest or weed control at 50 µg/cm2, 50 µg/cm2 ([2]; Table 3, 1,4-dialkoxybenzenes, feeding deterrence at 50 μg/cm^2, read-out: FD (%), mean ± SE (n = 25)) was 75.1 ± 12.7% and the pest or weed control at 0.25 % (T. ni moths [3]; Trichoplusia, 48 h, Table 3, oviposition deterrence at 0.25%, 48 h, read-out: OD (%), mean ± SE (n = 25-33)) was 18.8 ± 14.3%. For the same molecule, the mortality at 0.25 % ([4]; read-out: mortality (%) (n = 3 × 10), Table 3, at 0.25%) was 7%.

In the case of `C=CCc1c(OCC)cccc1OCCC` [5b{3, 2} y (100% y), 1-ethoxy-2-allyl-3-propoxy-benzene], the pest or weed control at 0.25 % (T. ni moths [1]; Table 7, second lots and purified isomers, at 0.25%) is reported as -6.4 ± 11.4%, the pest or weed control at 50 µg/cm2, 50 µg/cm2 ([2]; Table 7, second lots and purified isomers, 50 μg/cm^2, read-out: F.D (%) Mean ± SE N = 25) is reported as 74 ± 14% and the mortality at 0.25 % ([4]; read-out: Mortality (%) N = 3 × 10, Table 7, second lots and purified isomers, at 0.25%) is reported as 0%.

`C=CCc1cc(OC)ccc1OC` [5c{1, 1}, 1,4-dimethoxy-2-allyl-benzene] was tested, and the pest or weed control at 0.25 % (T. ni moths [1]) was 14 ± 12%, the pest or weed control at 50 µg/cm2 [2] was 80% and the pest or weed control at 50 µg/cm2, 50 µg/cm2 ([2]; read-out: F.D (%) Mean ± SE N = 25) was 80 ± 11%. For the same molecule, the DC50 [2] was 20 μg/cm^2, the mortality at 0.25 % [4, 10] was 38.9% and the “% mortality” value ([4]; in vivo) was 39%.

For `C=CCc1cc(OCCC)ccc1OC` [5c{3, 1}, 1-methoxy-2-allyl-4-propoxy-benzene], the pest or weed control at 0.25 % (T. ni moths [1]; Table 10, at 0.25%) was 7 ± 15%, the pest or weed control at 50 µg/cm2, 50 µg/cm2 ([2]; Table 10, 50 μg/cm^2, read-out: F.D (%) Mean ± SE N = 25) was 92 ± 6% and the pest or weed control at 50 µg/cm2 [2, 6] was 92%. For the same molecule, the DC50 [2] was 9 μg/cm^2, the mortality at 0.25 % [4, 10] was 6.4% and the “% mortality” value [4, 9] was 6%.

`CCN(CC)C(=O)c1cccc(C)c1` [DEET, reference compound] was tested, and the “OD (%) Mean ± SE N = 35-40” value (T. ni moths [1]; Table 8, at 0.25%) was 23 ± 14%, the “F.D (%) Mean ± SE N = 25” value ([2]; Table 8, 50 μg/cm^2) was 60 ± 15 ^AB % and the “Mortality (%) N = 3 × 10” value ([4]; Table 8, at 0.25%) was 7%.
